Source: patent publication US12144791B2, “KRAS agonists, pharmaceutical compositions, and uses in managing cancer” (Emory University, priority 2019, dated 2024)
Entries after “also recorded” stand apart in the source; their conditions may differ.

Experiments:
GFP-tagged KRAS S17A = molecular target: T1, GFP-tagged KRAS S17A (Homo sapiens, UniProt P01116, S17A); experiment: Raf-1-RBD pull-down of exogenous GFP-tagged KRAS S17A in A549 cells; assay type: cell-based; conditions: 15 μM, 48 h
T1 construct: expressed in transfected cells; host or cells: A549
Procedure: The GFP-tagged exogenous KRAS-GTP (GFP-KRAS-GTP) was analyzed by Western blot using anti-GFP antibody.
(§1) To further test this intracellularly, GFP-tagged WT, S17A, K117A and AA KRAS mutants were exogenously transfected into A549 cells. […] Activities of exogenous GFP-tagged WT and KRAS mutants were analyzed by Western blot using GFP antibody.

[1] = tested on: A549, H157, Calu-1 and H292 cells; experiment: GFP-LC3 autophagosome quantification; assay type: cell-based, human; conditions: 48 h
Procedure: After 24 h, cells were treated with KRA-533 for 48 h. The percentages of LC3-GFP-transfected cells bearing LC3-GFP aggregates (LC3-FGPvac) were quantified as shown.
Activated KRAS can trigger cell death via apoptosis and autophagy-associated cell death in cancer cells. To test whether KRA-533- activated KRAS promotes apoptosis and autophagic cell death, A549, H157, Calu-1 and H292 cells were treated with increasing concentrations of KRA-533 for 48 h, followed by analysis of KRAS activity, apoptosis and autophagy. […] Autophagy was measured by analysis of LC3-I/LC3-II and p62 following treatment of cells with KRA-533. It is well known that p62 is an autophagy receptor or substrate that can be degraded by autophagy. In addition to LC3-II, p62 was analyzed as another autophagy marker. […] To further quantify the level of autophagy, a GFP-LC3 construct was used to indicate autophagosomes. After treatment with KRA-533, GFP-LC3 redistributed from a diffuse staining pattern in the cytoplasm and nucleus to a cytoplasmic punctate structure that specifically labels pre-autophagosomal and autophagosomal membranes (i.e. GFP-LC3 vac cells). […] These findings indicate that, in addition to apoptosis, KRA-533 can also induce autophagic cell death.

KRAS G12C [2] = molecular target: T2, KRAS G12C (Homo sapiens, UniProt P01116, G12C); experiment: In vitro cell-free GDP-GTP exchange, KRAS G12C; assay type: biochemical; conditions: with GEF (RASGRP1) and GAP (RASA1), 25° C., 60 min
Procedure: (§2) GTPγS, purified GFP (RASGRP1, 180 nM) and GAP (RASA1, 180 nM) at 25° C. in the presence or absence of increasing concentrations of KRA-533.
(§3) To test whether KRA-533 directly binds to KRAS, a thermal shift assay was employed. […] To further assess whether KRA-533 activates KRAS directly, an in vitro cell-free GDP-GTP exchange experiment was carried out. Purified WT, G12C, G12D or G13D mutant KRAS proteins were incubated with purified GEF (RASGRP1) and GAP (RASA1) proteins in reaction buffer containing [γ-35S]-GTP in the absence or presence of increasing concentrations of KRA-533 at 25° C. for 60 min. KRAS activity was quantified by liquid scintillation counting. […] These findings indicate that KRA-533 not only activates WT KRAS but also has the capacity to further enhance KRAS activity of mutant KRAS.

KRAS WT = KRAS WT (Homo sapiens, UniProt P01116); experiment: Thermal shift assay, purified KRAS WT; assay type: binding; conditions: increasing concentrations
Procedure: (§4) Melting temperature (Tm) values of DMSO Ctrl and 15 μM of KRA-533 are shown.
(§5) Melting temperature (Tm) values of DMSO control and 15 μM KRA-533 are shown.
as §3, §1

[3] = Single-dose maximum tolerated dose (MTD); assay type: in vivo
Procedure: To define the appropriate doses of KRA-533 for in vivo experimentation, standard single-dose maximum tolerated dose (MTD) was determined. Nu/Nu nude mice were treated with a single dose of 150, 300 or 400 mg/kg i.p., followed by toxicity observations. […] Based on these findings, mice might die mainly from liver and kidney damage at a single 400 mg/kg dose. Thus, the single dose MTD of KRA-533 ranges from 300 to 400 mg/kg. One tenth of single-dose MTD was contemplated (˜30-40 mg/kg) for continuous treatment, e.g., between 10 and 30 mg/kg/day.

KRAS G12D = KRAS G12D (Homo sapiens, UniProt P01116, G12D); experiment: In vitro cell-free GDP-GTP exchange, KRAS G12D; assay type: biochemical; conditions: with GEF (RASGRP1) and GAP (RASA1), 25° C., 60 min
Procedure: as §2, §3

[4] = tested on: A549 xenografts bearing mutant KRAS; experiment: A549 lung cancer xenografts bearing KRAS mutation (G12S); assay type: in vivo
Procedure: Tumor volume was measured once every 2 days (left panel). Tumor volumes of 6 individual mice in each group were compared on day 28 (right panel). After 28 days, the mice were sacrificed, and the tumors were removed and analyzed.
Expression levels of active caspase-3, cleaved PARP, Beclin-1 and LC3-II in tumor tissues were analyzed by Western blot.
To test the potency of KRA-533 in vivo, lung cancer xenografts derived from A549 cells bearing KRAS mutation (G12S) were treated with increasing doses (0, 7.5, 15, and 30 mg/kg/day) of KRA-533 i.p. for 28 days. […] To assess whether KRA-533 induced suppression of tumor growth via apoptosis and autophagy in vivo, representative samples from harvested tumor tissues were analyzed by immunohistochemistry (IHC) for active caspase-3 or LC3-II.

KRAS G13D = KRAS G13D (Homo sapiens, UniProt P01116, G13D); experiment: Thermal shift assay, purified KRAS G13D; assay type: binding; conditions: increasing concentrations
Procedure: as §4, §3

KRAS S17A [5] = molecular target: T3, KRAS S17A (Homo sapiens, UniProt P01116, S17A); experiment: In vitro cell-free GDP-GTP exchange, KRAS S17A; assay type: biochemical; conditions: 15 μM
T3 construct: made in house
Procedure: GTPγS, purified GFP (RASGRP1, 180 nM) and GAP (RASA1, 180 nM) at 25° C. in the presence or absence of 15 μM KRA-533. The radioactivity remaining on the protein after intensive washing was quantified by liquid scintillation.
as §1

A549 and H157 cells = experiment: Western blot of autophagy marker p62 with or without chloroquine; assay type: cell-based, human; conditions: 48 h
Procedure: To assess whether the autophagy inhibitor regulates KRA-533-induced autophagy formation, A549 and H157 cells were treated with KRA-533 in the absence or presence of autophagy inhibitor chloroquine for 48 h, followed by Western blot analysis of the autophagy marker p62.

KRAS G12C [6] = molecular target: T2, KRAS G12C; experiment: Thermal shift assay, purified KRAS G12C; assay type: binding; conditions: increasing concentrations
Procedure: as §4, §3

KRAS S17A [7] = molecular target: T3, KRAS S17A; experiment: Thermal shift assay, purified KRAS S17A; assay type: binding
Procedure: as §5, §1

[8] = 0, 7.5, 15, and 30 mg/kg/day i.p. for 28 days

In the case of `O=C(CBr)NCCCCc1ccc(C(=O)O)cc1` [KRA-533, 4-(4-(2-bromoacetamido)butyl)benzoic acid], the “activity of exogenous GFP-tagged S17A KRAS (GFP-KRAS-GTP)” value (GFP-tagged KRAS S17A) was “activated exogenous WT and S17A”, the “percentage of GFP-LC3vac cells” value [1] was “enhanced the percentage of GFP-LC3vac cells in a dose-dependent manner” and the “KRAS activity (liquid scintillation), KRAS G12C” value (KRAS G12C [2]) was “further enhanced the activities of active KRAS mutants”. The “melting temperature (Tm) / binding, KRAS WT” value (KRAS WT) was “Dose dependent increases in melting temperature (Tm); also recorded: could bind”, the MTD ([3]; mouse, in vivo, ip, Nu/Nu nude mice) was 300 to 400 mg/kg and the “Alanine transaminase (ALT)” value ([3]; single dose of 400 mg/kg) was “significantly elevated”. For the same compound, the “aspartate transaminase (AST)” value ([3]; single dose of 400 mg/kg) was “significantly elevated”, the “blood urea nitrogen (BUN)” value ([3]; single dose of 400 mg/kg) was “significantly elevated” and the “death of mice (time)” value ([3]; single dose of 400 mg/kg) was 8 days. For the same compound, the “weight loss or other toxicities (hematologic, liver and kidney function)” value ([3]; single dose of 150 or 300 mg/kg i.p.) was “did not cause weight loss or other toxicities”, the “KRAS activity (liquid scintillation), KRAS G12D” value (KRAS G12D) was “further enhanced the activities of active KRAS mutants” and the “apoptosis and autophagy in tumor tissues (IHC active caspase-3, LC3-II)” value [4, 8] was “induced apoptosis and autophagy in tumor tissues in a dose-dependent manner”. For the same compound, the tumor growth [4, 8] was “suppressed tumor growth in a dose-dependent manner”, the “blood cells (WBC, RBC and PLT), BUN and ALT/AST” value ([4]; 7.5˜30 mg/kg/d) was “in the normal range” and the body weight ([4]; 7.5˜30 mg/kg/d) was “no weight loss”. The tolerability ([4]; 7.5˜30 mg/kg/d) was “well tolerated without significant toxicity”, the “histopathology of normal tissues (brain, heart, lung, liver, spleen, kidney and intestine)” value ([4]; 7.5˜30 mg/kg/day) was “no evidence of normal tissue toxicities” and the “active KRAS in tumor tissues (Raf-1-RBD pull-down)” value ([4]; tumor tissue lysates after 28 days) was “accumulation of active KRAS in tumor tissues”. For the same compound, the “melting temperature (Tm) / binding, KRAS G13D” value (KRAS G13D) was “Dose dependent increases in melting temperature (Tm)”, the “KRAS activity (liquid scintillation), KRAS S17A” value (KRAS S17A [5]) was “directly activated” and the “autophagy marker p62, KRA-533 alone” value (A549 and H157 cells) was “induced autophagy with deceased p62 level via degradation”. The “melting temperature (Tm) / binding, KRAS G12C” value (KRAS G12C [6]) was “Dose dependent increases in melting temperature (Tm)” and the “binding (thermal shift), KRAS S17A” value (KRAS S17A [7]) was “could bind”.
